This note sets out measurements from paper PMC3731320, “Identification of Benzimidazole Diamides as Selective Inhibitors of the Nucleotide-Binding Oligomerization Domain 2 (NOD2) Signaling Pathway” (PLoS ONE, 2013).

Structures are written as SMILES. “Also recorded” adds a separate entry of the source.

Test [1] concerns NOD1. Nature of the test: Tri-DAP-stimulated IL-8 release in HCT116 cells (endogenous NOD1). The format is cell-based, human. The protocol: (§1) Compound activity on endogenous NOD1 and NOD2 receptors was determined by inhibition of either Tri-DAP or MDP-stimulated IL-8 release, respectively, using HCT116 human colon carcinoma cells. […] The cells were maintained in DMEM high glucose medium supplemented with 25 mM HEPES and 10% FBS. For assay, cells were seeded into 96 well plates (90,000 cells/well) in DMEM containing 1% FBS and pre-incubated with compounds for 1 hour before addition of either 1 μg/mL MDP or 25 μg/mL Tri-DAP. The level of IL-8 released into medium after 24-hour incubation was determined by HTRF assay as described above and fluorescence measured on an Envision model 2102 multilabel plate reader (Perkin Elmer).

Test [2] has as its system NOD1. Description: iE-DAP-stimulated IL-8 release in 293/hNOD1 cells (HTRF). The class given is cell-based, human. The note with it: Homo sapiens; IL-8 end-point; 60 ng/mL iE-DAP; read-out: IC50 293/hNOD1 iE-DAP. The protocol:
(§2) After 24 hours the amount of IL-8 secreted into the medium was determined by homogeneous time resolved fluorescence (HTRF) assay by the direct addition of a 1:1 mix of europium cryptate and XL665-conjugated anti-IL-8 antibodies according to the manufacturer's instructions (Cisbio).

For test [3], the system named is NOD2. Nature of the test: Western blot of MAPK phosphorylation and IκBα in MDP-stimulated 293/hNOD2 cells. The format is cell-based, human. The note with it: GSK669 at 1 and 10 μM. As for the experimental part: Confluent cultures of 293/-hNOD1 and -hNOD2 cells in 24-well plates were serum-starved over-night. The next day, cells were pre-incubated for 1 hour with compound and then stimulated for 1 hour with either 50 μg/mL Tri-DAP or 25 μg/mL MDP, respectively. Whole cell lysates were prepared in 1X cell lysis buffer (Cell Signaling Technology) containing additional inhibitors of aspartic, cysteine and serine proteases and aminopeptidases (protease inhibitor cocktail set III, EMD Biosciences) and inhibitors of multiple phosphatases (phosphatase inhibitor cocktail sets II and III, Sigma-Aldrich). The levels of phosphorylated and total p38, JNK, ERK1/2 and total IκBα were determined by immunoblotting of ∼20 μg protein per sample using the following primary antibodies: phospho-p38 MAPK (12F8, #4631), p38 MAPK (#9212), phospho-JNK (#9251), JNK (#9252) and IκBα (#9242) all purchased from Cell Signaling Technology, and phospho-ERK1/2 (sc-7383) and ERK1/2 (sc-94) antibodies from Santa Cruz Biotechnology.

Test [4] has as its system TLR2. Nature of the test: Pam2CSK4-stimulated IL-8 release in 293/hTLR2 cells. The class given is cell-based, human. The note with it: Homo sapiens; IL-8 end-point; 3–10 ng/mL Pam2CSK4; read-out: IC50 293/hTLR2 Pam2CSK4. As for the experimental part:
as §2

For test [5], the system named is NOD2. Description: MDP-stimulated IL-8 release in HCT116 cells (endogenous NOD2). The class given is cell-based, human. As for the experimental part: as §1
Test [6] addresses T1, full length human FLAG-6His tagged RIP2 (Homo sapiens, UniProt O43353).
T1 construct: autophosphorylation of full length human FLAG-6His tagged RIP2; FLAG; 6His; made in house
Nature of the test: RIP2 kinase autophosphorylation assay (ADP-Glo). The class given is biochemical. The note with it: autophosphorylation of RIPK2; 10 μM ATP. As for the experimental part: Direct effects of compounds on RIP2 kinase activity was determined by autophosphorylation of full length human FLAG-6His tagged RIP2 expressed and purified from baculovirus. Enzyme was pre-incubated with compounds in assay buffer (50 mM HEPES pH 7.5, 25 mM MgCl2, 0.05%[w/v] CHAPS, 1 mM DTT and 0.05 mg/mL BSA) in 384-well plates, and then incubated with 10μM ATP for 2 hours at room temperature. The amount of ADP generated was measured using the ADP-Glo universal ADP detection assay for kinases (Promega) and luminescence quantified on a ViewLux imager.
(ADP-Glo first removes unused ATP, then detects ADP through luciferase.)

A further test has as its system TNFR1. Description: TNFα-stimulated (TNFR1-induced) IL-8 release in 293/hNOD2 cells. The format is cell-based, human. To be noted: Homo sapiens; IL-8 end-point; 20 ng/mL rhTNFα; read-out: IC50 293/hNOD2 TNFα. As for the experimental part:
as §2

In test [7] the test system is NOD2. Nature of the test: MDP-stimulated IL-8 release in 293/hNOD2 cells (HTRF). The class given is cell-based, human. To be noted: Homo sapiens. The protocol:
as §2
A general note: Time-resolved FRET reads energy transfer from a long-lived donor to a nearby acceptor.

Test [8] deals with NOD2. Nature of the test: MDP-stimulated cytokine release in primary human monocytes. The class given is cell-based. To be noted: MDP 0.1 μg/mL. The protocol:
(§3) […] The concentration of IL-1β, IL-6 and TNFα in medium samples collected after 24-hour treatment was determined using the MS6000 human pro-inflammatory-4 II tissue culture kit (Meso Scale Discovery). The IL-8 concentration was determined by HTRF.

The subject of test [9] is TLR2. Description: Pam2CSK4-stimulated IL-8 release in primary human monocytes. The format is cell-based. The note with it: Pam2CSK4 100 pg/mL; GSK717 0.5–16 μM, RIP2 inhibitor 0.05–1.6 μM.
The next test relates to NOD2 and TLR2. Description: IL-8 release in primary human monocytes co-stimulated with MDP and Pam2CSK4 (NOD2-TLR2 synergy). The class given is cell-based. The note with it: MDP 0.1 μg/mL + Pam2CSK4 100 pg/mL; listed as GSK717. The protocol:
as §3

The test system of the next test is HCT116 cells. Description: Uptake of MDP-rhodamine by HCT116 cells (fluorescence microscopy). The class given is cell-based, human. The note with it: GSK669 up to 20 μM, chlorpromazine 20 μM, 1–4 hour. As for the experimental part:
HCT116 cells seeded onto glass cover-slips at low density were pre-treated with GSK669 or the endocytosis inhibitor chlorpromazine for 30 minutes before addition of 2.5 μg/mL MDP-rhodamine. Live cells were viewed periodically over 6-hours incubation at 37 °C using a Nikon eclipse TE2000-E fluorescent inverted microscope fitted with a CCTV camera and rhodamine filter.

T1 sequence (O43353 whole entry): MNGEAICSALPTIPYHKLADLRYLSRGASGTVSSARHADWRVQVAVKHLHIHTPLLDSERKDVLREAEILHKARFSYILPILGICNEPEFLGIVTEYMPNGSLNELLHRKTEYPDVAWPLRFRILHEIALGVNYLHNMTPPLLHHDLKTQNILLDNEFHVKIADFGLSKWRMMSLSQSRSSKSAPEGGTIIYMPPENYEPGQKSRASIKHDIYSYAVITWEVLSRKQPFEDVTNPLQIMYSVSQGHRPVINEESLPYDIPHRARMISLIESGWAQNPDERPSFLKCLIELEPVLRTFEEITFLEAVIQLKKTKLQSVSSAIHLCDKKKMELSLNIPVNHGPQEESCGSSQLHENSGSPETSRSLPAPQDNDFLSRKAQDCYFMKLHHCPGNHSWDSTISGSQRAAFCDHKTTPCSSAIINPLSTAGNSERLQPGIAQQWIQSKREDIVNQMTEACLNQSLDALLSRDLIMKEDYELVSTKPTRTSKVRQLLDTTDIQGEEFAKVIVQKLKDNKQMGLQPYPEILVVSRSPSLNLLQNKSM

Turning to `CC(C)c1ccc(NC(=O)Cn2c(CCNC(=O)c3ccccc3)nc3ccccc32)cc1` [Compound 2, N-(2-(1-(2-((4-isopropylphenyl)amino)-2-oxoethyl)-1H-benzo[d]imidazol-2-yl)ethyl)benzamide], the IC50 in the test with NOD1 [1] (Homo sapiens, HCT-116, IL-8 end-point, 25 μg/mL Tri-DAP) was greater than 50 µM; in the test on NOD1 [2], greater than 50 µM; in the test on TLR2 [4], greater than 100 µM; with NOD2 [5] (Homo sapiens, HCT-116, IL-8 end-point, 1 μg/mL MDP), 1.1 ± 0.7 µM; in [6] it was greater than 100 µM; with TNFR1 it was greater than 100 µM. Also, the IC50 in the test with NOD2 [7] (IL-8 end-point, 30 ng/mL MDP, read-out: IC50 293/hNOD2 MDP) worked out at 5 µM; with NOD2 [7] (MDP-stimulated IL-8 production assay in 293/hNOD2 cells, Figures 4 and 5, read-out: NOD2 IC50) it was 4 ± 3.9 µM. Moreover, the “effect on IL-8 secretion induced by Tri-DAP in HCT116 cells” value with NOD1 [1] (Tri-DAP 25 μg/mL, 1 hour pre-treatment) is reported as “had no effect”. The “effect on MDP-induced p-p38, p-JNK and total IκBα” value with NOD2 [3] is recorded as “more modest inhibitory effects”. Further, the “effect on IL-8 secretion induced by MDP in HCT116 cells” value in the test with NOD2 [5] (MDP 1 μg/mL, 1 hour pre-treatment) was “dose-dependently inhibited”.
In the case of `CN(CCc1nc2ccccc2n1CC(=O)Nc1ccc2c(c1)CCC2)C(=O)c1ccccc1` [Compound 29, N-(2-(1-(2-((2,3-dihydro-1H-inden-5-yl)amino)-2-oxoethyl)-1H-benzo[d]imidazol-2-yl)ethyl)-N-methylbenzamide], the “effect on MDP-stimulated IL-8 release in monocytes” value with NOD2 [8] (GSK717 0.5–16 μM, RIP2 inhibitor 0.05–1.6 μM) is listed as “prevented”. Moreover, the “effect on MDP-stimulated cytokine secretion, single concentration” value in the test on NOD2 [8] (primary human monocytes, compound 5 μM, IL-1β, IL-6, IL-8, TNFα, 24 hours) is on record as “abrogated the stimulatory effect of MDP”. In addition, the “effect on Pam2CSK4-stimulated IL-8 release in monocytes” value with TLR2 [9] is recorded as “but not Pam2CSK4-stimulated IL-8 release”. Also, the “effect on synergistic IL-8 response of co-stimulated monocytes” value in the test on NOD2 and TLR2 was “blocks synergy between NOD2 and TLR2; also recorded: abolished the clear synergistic IL-8 response”.
In the case of `CN(C)CCCN1c2ccccc2Sc2ccc(Cl)cc21` [chlorpromazine, reference compound], the “effect on uptake of Rhodamine-MDP into cells” value in the test with HCT116 cells is on record as “intracellular punctate fluorescence did not develop”.
